Laboratory results as given in patent US6737383B1, “Herbicidal oxadiazolidines” (priority 1999, dated 2004).

Legend:
[1] = tested on: soybean; assay: Test B pre/postemergence soybean; type: in vivo, Glycine max
Procedure, shortened: (§1)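 Test chemicals in a non-phytotoxic solvent mixture with surfactant were sprayed preemergence onto planted seeds and postemergence onto plants 2 to 18 cm tall (1- to 4-leaf stage). After twelve to sixteen days in a greenhouse, injury was visually rated against untreated controls from 0 (no effect) to 10 (complete control).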

[2] = tested on: velvetleaf; assay: Test B pre/postemergence velvetleaf; type: in vivo, Abutilon theophrasti
Procedure, shortened: as §1

[3] = tested on: blackgrass; assay: Test B pre/postemergence blackgrass; type: in vivo, Alopecurus myosuroides
Procedure, shortened: as §1

[4] = tested on: bedstraw; assay: Test B pre/postemergence bedstraw; type: in vivo, Galium aparine
Procedure, shortened: as §1

[5] = Postemergence, Rate 62 g/ha, scale 0 to 10, 0 is no effect, 10 is complete control
[6] = Postemergence, Rate 125 g/ha, scale of 0 to 10 where 0 is no effect and 10 is complete control
[7] = Preemergence, Rate 62 g/ha, scale of 0 to 10 where 0 is no effect and 10 is complete control
[8] = Preemergence, Rate 125 g/ha, scale of 0 to 10 where 0 is no effect and 10 is complete control
[9] = Preemergence, Rate 250 g/ha, scale 0 to 10 (0 no effect, 10 complete control)
[10] = Preemergence, Rate 500 g/ha, scale of 0 to 10 where 0 is no effect and 10 is complete control
[11] = Rate 500 g/ha, Postemergence, scale 0 to 10, 0 is no effect, 10 is complete control
[12] = Postemergence, Rate 125 g/ha, scale 0 to 10, 0 is no effect, 10 is complete control
[13] = Postemergence, Rate 250 g/ha, scale 0 to 10, 0 is no effect, 10 is complete control
[14] = Preemergence, Rate 62 g/ha, scale 0 to 10 (0 no effect, 10 complete control)
[15] = Preemergence, Rate 250 g/ha, scale of 0 to 10 where 0 is no effect and 10 is complete control
[16] = Rate 62 g/ha, Postemergence, scale of 0 to 10 where 0 is no effect and 10 is complete control
[17] = Rate 500 g/ha, Postemergence, scale 0 to 10, 0 no effect, 10 complete control
[18] = Postemergence, Rate 250 g/ha, scale 0 to 10, 0 no effect, 10 complete control
[19] = Preemergence, Rate 31 g/ha, visual rating, scale 0 to 10 (0 no effect, 10 complete control)
[20] = Preemergence, Rate 62 g/ha, scale 0 to 10, 0 is no effect, 10 is complete control
[21] = Preemergence, Rate 125 g/ha, scale 0 to 10 (0 no effect, 10 complete control)
[22] = Rate 125 g/ha, Postemergence, scale 0 to 10, 0 no effect, 10 complete control
[23] = Rate 31 g/ha, Postemergence, scale 0 to 10
[24] = Rate 125 g/ha, Postemergence, scale 0 to 10
[25] = Rate 125 g/ha, Preemergence, scale of 0 to 10 where 0 is no effect and 10 is complete control
[26] = Rate 500 g/ha, Postemergence, scale 0 to 10
[27] = Preemergence, Rate 500 g/ha, scale 0 (no effect) to 10 (complete control)
[28] = Rate 250 g/ha, Postemergence, scale 0 to 10, 0 is no effect, 10 is complete control
[29] = Preemergence, Rate 250 g/ha, scale 0 to 10, 0 is no effect, 10 is complete control

CC(C)N(C(=O)n1oc(=O)n(CCF)c1=O)c1ccc(Cl)cc1 [Compound 668]
6: Plant response rating, Soybean [1, 10] | Soybean plant response rating [1, 11] | Velvetleaf plant response rating [2, 8] | Blackgrass plant response rating [3, 7]
1: Soybean plant response rating [1, 8] | Plant response rating, Soybean [1, 9]
7: Plant response rating, Velvetleaf [2, 9] | Velvetleaf plant response rating [2, 11] | Plant response rating, Blackgrass [3, 5]
2: Plant response rating, Soybean [1, 5] | Soybean plant response rating [1, 6]
0: Soybean plant response rating [1, 7] | Plant response rating, Velvetleaf [2, 5] | Velvetleaf plant response rating [2, 6] | Bedstraw plant response rating [4, 6]
10: Plant response rating, Blackgrass [3, 9] | Plant response rating, Blackgrass [3, 10]
9: Blackgrass plant response rating [3, 11]
8: Plant response rating, Velvetleaf [2, 10] | Blackgrass plant response rating [3, 6] | Blackgrass plant response rating ([3]; Postemergence, Rate 250 g/ha, scale of 0 to 10, 0 is no effect, 10 is complete control) | Blackgrass plant response rating [3, 8]
3: Velvetleaf plant response rating [2, 7]

CCN(CC)C(=O)n1oc(=O)n(-c2ccccc2C)c1=O [Compound 364]
3: Plant response rating, Soybean [1, 13] | Plant response rating, Soybean [1, 17] | Bedstraw plant response rating [4, 10]
1: Blackgrass plant response rating [3, 15]
0: Plant response rating, Soybean [1, 14] | Soybean plant response rating (0 to 10 scale) ([1]; Preemergence, Rate 125 g/ha) | Soybean plant response rating [1, 15] | Soybean plant response rating [1, 10] | Soybean plant response rating [1, 16] | Plant response rating, Velvetleaf [2, 12] | Plant response rating, Velvetleaf [2, 13] | Plant response rating, Velvetleaf [2, 14] | Velvetleaf plant response rating (0 to 10 scale) ([2]; Preemergence, Rate 125 g/ha) | Velvetleaf plant response rating [2, 15] | Velvetleaf plant response rating [2, 10] | Velvetleaf plant response rating [2, 16] | Plant response rating, Velvetleaf [2, 17] | Plant response rating, Blackgrass [3, 12] | Plant response rating, Blackgrass [3, 13] | Plant response rating, Blackgrass [3, 14] | Blackgrass plant response rating (0 to 10 scale) ([3]; Preemergence, Rate 125 g/ha) | Blackgrass plant response rating [3, 16] | Plant response rating, Bedstraw [4, 12] | Plant response rating, Bedstraw [4, 13] | Plant response rating, Bedstraw [4, 14] | Bedstraw plant response rating (0 to 10 scale) ([4]; Preemergence, Rate 125 g/ha) | Bedstraw plant response rating [4, 15] | Bedstraw plant response rating [4, 16] | Plant response rating, Bedstraw [4, 17]
4: Blackgrass plant response rating [3, 10]
2: Plant response rating, Soybean [1, 12] | Plant response rating, Blackgrass [3, 17]

COc1ccc(-n2c(=O)on(C(=O)N(c3ccc(F)cc3F)C(C)C)c2=O)c(OC)c1 [Compound 32]
0: Soybean plant response rating [1, 19] | Plant response rating, Soybean [1, 20] | Plant response rating, Soybean [1, 21] | Plant response rating, Soybean [1, 15] | Velvetleaf plant response rating [2, 5] | Velvetleaf plant response rating [2, 18] | Velvetleaf plant response rating [2, 19] | Plant response rating, Velvetleaf [2, 20] | Plant response rating, Velvetleaf [2, 21] | Plant response rating, Velvetleaf [2, 15] | Velvetleaf plant response rating [2, 22] | Blackgrass plant response rating [3, 5] | Blackgrass plant response rating [3, 19] | Blackgrass plant response rating [3, 23] | Blackgrass plant response rating [3, 22] | Bedstraw plant response rating [4, 5] | Bedstraw plant response rating [4, 18] | Bedstraw plant response rating [4, 19] | Plant response rating, Bedstraw [4, 20] | Plant response rating, Bedstraw [4, 21] | Plant response rating, Bedstraw [4, 15] | Bedstraw plant response rating [4, 23] | Bedstraw plant response rating [4, 22]
1: Plant response rating, Blackgrass [3, 20]
4: Plant response rating, Blackgrass [3, 15]
7: Blackgrass plant response rating [3, 18]
2: Soybean plant response rating [1, 5] | Soybean plant response rating [1, 18] | Soybean plant response rating [1, 22] | Plant response rating, Blackgrass [3, 21]

COC(=O)Cn1c(=O)on(C(=O)N(c2ccc(F)cc2)C(C)C)c1=O [Compound 215]
8: Bedstraw plant response rating [4, 26]
6: Plant response rating, Blackgrass [3, 10] | Blackgrass plant response rating [3, 25] | Plant response rating (0 to 10; 0 is no effect, 10 is complete control), Bedstraw ([4]; Rate 250 g/ha, Postemergence)
0: Soybean plant response rating [1, 7] | Soybean plant response rating [1, 15] | Plant response rating, Soybean [1, 10] | Soybean plant response rating [1, 16] | Soybean plant response rating [1, 25] | Velvetleaf plant response rating [2, 7] | Velvetleaf plant response rating [2, 15] | Plant response rating, Velvetleaf [2, 10] | Velvetleaf plant response rating [2, 16] | Velvetleaf plant response rating [2, 24] | Velvetleaf plant response rating [2, 25] | Plant response rating (0 to 10; 0 is no effect, 10 is complete control), Velvetleaf ([2]; Rate 250 g/ha, Postemergence) | Blackgrass plant response rating [3, 16] | Blackgrass plant response rating [3, 24] | Bedstraw plant response rating [4, 7] | Bedstraw plant response rating [4, 15] | Plant response rating, Bedstraw [4, 10] | Bedstraw plant response rating [4, 16] | Bedstraw plant response rating [4, 24] | Bedstraw plant response rating [4, 25]
1: Soybean plant response rating [1, 24] | Plant response rating (0 to 10; 0 is no effect, 10 is complete control), Soybean ([1]; Rate 250 g/ha, Postemergence) | Soybean plant response rating [1, 26]
4: Blackgrass plant response rating [3, 7] | Plant response rating (0 to 10; 0 is no effect, 10 is complete control), Blackgrass ([3]; Rate 250 g/ha, Postemergence)
5: Blackgrass plant response rating [3, 26]

CC(C)N(C(=O)n1oc(=O)n(-c2cccc3c2CCCC3)c1=O)c1ccc(F)cc1 [Compound 90]
4: Soybean plant response rating [1, 5] | Soybean plant response rating [1, 6] | Plant response rating, Soybean [1, 28] | Soybean plant response rating [1, 17]
3: Plant response rating, Blackgrass [3, 15]
0: Soybean plant response rating [1, 14] | Plant response rating, Soybean [1, 21] | Plant response rating, Soybean [1, 15] | Soybean plant response rating [1, 27] | Velvetleaf plant response rating [2, 5] | Velvetleaf plant response rating [2, 6] | Velvetleaf plant response rating [2, 14] | Plant response rating, Velvetleaf [2, 21] | Plant response rating, Velvetleaf [2, 15] | Velvetleaf plant response rating [2, 27] | Plant response rating, Velvetleaf [2, 28] | Blackgrass plant response rating [3, 5] | Blackgrass plant response rating [3, 6] | Blackgrass plant response rating [3, 18] | Blackgrass plant response rating [3, 14] | Plant response rating, Blackgrass [3, 21] | Blackgrass plant response rating [3, 17] | Bedstraw plant response rating [4, 5] | Bedstraw plant response rating [4, 14] | Plant response rating, Bedstraw [4, 21] | Plant response rating, Bedstraw [4, 15] | Bedstraw plant response rating [4, 27]
6: Blackgrass plant response rating [3, 27]

CC(C)N(C(=O)n1oc(=O)n(CC=Cc2ccccc2)c1=O)c1ccc(F)cc1 [Compound 210]
2: Plant response rating (0 to 10; 0 is no effect, 10 is complete control), Velvetleaf ([2]; Rate 250 g/ha, Postemergence) | Blackgrass plant response rating [3, 26] | Bedstraw plant response rating [4, 24]
3: Soybean plant response rating [1, 26]
1: Soybean plant response rating [1, 16] | Soybean plant response rating [1, 24] | Plant response rating (0 to 10; 0 is no effect, 10 is complete control), Soybean ([1]; Rate 250 g/ha, Postemergence)
4: Plant response rating, Blackgrass [3, 10] | Plant response rating (0 to 10; 0 is no effect, 10 is complete control), Bedstraw ([4]; Rate 250 g/ha, Postemergence)
0: Soybean plant response rating [1, 7] | Soybean plant response rating [1, 29] | Plant response rating, Soybean [1, 10] | Soybean plant response rating [1, 25] | Velvetleaf plant response rating [2, 7] | Velvetleaf plant response rating [2, 29] | Plant response rating, Velvetleaf [2, 10] | Velvetleaf plant response rating [2, 16] | Velvetleaf plant response rating [2, 24] | Velvetleaf plant response rating [2, 25] | Blackgrass plant response rating [3, 7] | Blackgrass plant response rating [3, 29] | Blackgrass plant response rating [3, 16] | Blackgrass plant response rating [3, 24] | Blackgrass plant response rating [3, 25] | Plant response rating (0 to 10; 0 is no effect, 10 is complete control), Blackgrass ([3]; Rate 250 g/ha, Postemergence) | Bedstraw plant response rating [4, 7] | Bedstraw plant response rating [4, 29] | Plant response rating, Bedstraw [4, 10] | Bedstraw plant response rating [4, 16] | Bedstraw plant response rating [4, 25]
